The values below come from article PMC9168383, “Structural and functional insights into the DNA damage-inducible protein 1 (Ddi1) from protozoa” (Current Research in Structural Biology, 2022).

Ends that are not written are not given here.

In assay [1] the target is T1, CrypDdi1-RVP (Cryptosporidium hominis, UniProt A0A0S4TE75). The assay can be described thus: Bio-layer interferometry (BLI), CrypDdi1-RVP. It counts as binding, C. hominis. Conditions: inhibitor 75-600 μM; for binding of inhibitor to CrypDdi1-RVP: MES pH 5.5. In general terms: Biolayer interferometry detects binding as a change in optical thickness at a sensor tip.
Another assay deals with human Ddi2. Conditions: ref Gu et al., 2020, Fassmannova et al.; cited from earlier work.
Assay [2] addresses T2, ToxoDdi1-RVP (Toxoplasma gondii, UniProt S7W9N7). The assay can be described thus: biochemical. It counts as binding.
The target in assay [3] is T2, ToxoDdi1-RVP. Description: FRET activity assay with HIV protease substrate-1 and inhibition by HIV protease inhibitors, ToxoDdi1-RVP. The class given is biochemical, T. gondii. The procedure: (§1) The activity assay was carried out using HIV protease substrate-1 (Sigma-aldrich). […] It contains the HIV protease cleavage site (Tyr-Pro) and two covalently modified amino acids for the detection of the proteolytic activity: the fluorophore EDANS was attached to the glutamic acid residue on the N-terminal side and the acceptor chromophore DABCYL to the lysine residue on the C-terminal side of the scissile bond. EDANS excited with light at 340 nm emits light at 490 nm which gets absorbed by the DABCYL group. Cleavage of the peptide separates the modified amino acids quenching FRET and emission could be detected at 490 nm ToxoDdi1-RVP and CrypDdi1-RVP were added in different concentrations to 2 μM of HIV protease substrate-1 in a buffer containing 0.1M sodium acetate pH 4.5, 1.0 M sodium chloride, 1.0 mM EDTA, 1.0 mM DTT and 10% DMSO. […] All the samples were incubated at 37 °C for 1 h and the fluorescence emission was recorded at 490 nm.

A further assay has as its system T. gondii. Conditions: ref Wang et al., 2019; cited from earlier work.
For assay [4], the target named is T1, CrypDdi1-RVP. The assay can be described thus: FRET activity assay with HIV protease substrate-1 and inhibition by HIV protease inhibitors, CrypDdi1-RVP. The class given is biochemical, C. hominis. The method, then: as §1
The target of assay [5] is T2, ToxoDdi1-RVP. Description: HPLC cleavage of HIV protease substrate-1 by ToxoDdi1-RVP. Particulars: 10 μM substrate, 22 μg/ml ToxoDdi1-RVP, 100 mM sodium acetate pH 4.7, 1 M NaCl, 1 mM DTT, 37 °C, UV 490 nm. The class given is biochemical, T. gondii.
Assay [6] addresses T1, CrypDdi1-RVP. The assay can be described thus: HPLC cleavage of HIV protease substrate-1 by CrypDdi1-RVP. The class given is biochemical, C. hominis. Conditions: 10 μM substrate, 22 μg/ml CrypDdi1-RVP, UV 490 nm.
The target of assay [7] is CrypDdi1-RVP (Cryptosporidium hominis). The assay can be described thus: crystal structure; CrypDdi1-RVP, microbatch, 8 mg/ml, 0.1 M MES-sodium hydroxide pH 6.0, 30% polyacrylate sodium salt, 10% ethanol, 291 K; space group H32, one molecule in the asymmetric unit, dimer by crystallographic 2-fold symmetry.
Another assay concerns the target T3, LeishDdi1-fl (Leishmania major, UniProt I7HUG0).
T3 construct: The full length Ddi1 construct, LeishDdi1-fl (1–390 aa) was cloned in pET-28a vector; hexa-histidine (N); made in house; host or cells: E. coli BL-21
Description: BLI binding of peptides to LeishDdi1-fl. On the set-up: species or system L. major. Conditions: 5 mM peptide immobilized on AR2G tip, LeishDdi1-fl in solution, 20 mM HEPES pH 7.5, 100 mM NaCl, 10 min, 1:1 Langmuir.

Assay [8] concerns the target ToxoDdi1-RVP (Toxoplasma gondii). The assay can be described thus: crystal structure; ToxoDdi1-RVP, microbatch, 8 mg/ml, 1.8 M ammonium citrate tribasic pH 7.0, 30% 2-propanol, 291 K; space group P41212, six dimers in the asymmetric unit.

T1 sequence (A0A0S4TE75 entry or part of it): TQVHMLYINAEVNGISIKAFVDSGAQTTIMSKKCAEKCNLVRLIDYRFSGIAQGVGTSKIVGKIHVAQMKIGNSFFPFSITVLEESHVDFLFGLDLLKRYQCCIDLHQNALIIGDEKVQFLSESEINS
T2 sequence (S7W9N7 entry or part of it): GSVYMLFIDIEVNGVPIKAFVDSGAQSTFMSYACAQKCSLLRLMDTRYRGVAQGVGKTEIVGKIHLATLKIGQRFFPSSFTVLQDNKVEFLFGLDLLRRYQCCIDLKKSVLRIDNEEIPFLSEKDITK
T3 sequence (I7HUG0 whole entry, the tested form may be a part): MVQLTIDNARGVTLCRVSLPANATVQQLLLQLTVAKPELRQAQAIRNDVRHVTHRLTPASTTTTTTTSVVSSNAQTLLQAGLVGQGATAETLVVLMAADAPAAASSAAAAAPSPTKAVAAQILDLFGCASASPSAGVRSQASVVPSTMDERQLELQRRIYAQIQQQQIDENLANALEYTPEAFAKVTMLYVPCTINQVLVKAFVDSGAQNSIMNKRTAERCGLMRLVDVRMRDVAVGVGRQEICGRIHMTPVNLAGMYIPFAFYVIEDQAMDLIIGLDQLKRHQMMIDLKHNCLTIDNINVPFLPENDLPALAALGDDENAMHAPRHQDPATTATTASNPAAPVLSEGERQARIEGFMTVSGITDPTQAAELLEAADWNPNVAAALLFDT

`CC(C)(C)NC(=O)[C@@H]1CN(Cc2cccnc2)CCN1C[C@@H](O)C[C@@H](Cc1ccccc1)C(=O)N[C@H]1c2ccccc2C[C@H]1O` [indinavir]: the “binding of inhibitor to CrypDdi1-RVP” value on CrypDdi1-RVP [1] was “do not bind”.
By Kd is commonly meant a measure of binding affinity in units of concentration. Read a high Kd as a looser complex. As for `Cc1c(O)cccc1C(=O)N[C@@H](CSc1ccccc1)[C@H](O)CN1C[C@H]2CCCC[C@H]2C[C@H]1C(=O)NC(C)(C)C` [nelfinavir], in the assay with human Ddi2, the “inhibition of human Ddi2 activity” value is “ability to inhibit the activity of human Ddi2”. On ToxoDdi1-RVP [2], this compound came in with a Kd of 238 ± 6.3 µM. Further, on CrypDdi1-RVP [1], the “binding of inhibitor to CrypDdi1-RVP” value is given as “do not bind”. Also, at ToxoDdi1-RVP [3] (500 μM inhibitor, 20 μM ToxoDdi1-RVP, 2 μM HIV protease substrate-1, 0.1M sodium acetate pH 4.5, 1.0 M NaCl, 1.0 mM EDTA, 1.0 mM DTT, 10% DMSO, 37 °C, 1 h, emission 490 nm), the “effect on proteolytic activity of ToxoDdi1-RVP” value is reported as “has an inhibitory effect on the proteolytic activity of ToxoDdi1-RVP”. Moreover, the “fluorescence intensity in the presence of inhibitor, ToxoDdi1-RVP” value at ToxoDdi1-RVP [3] (500 μM inhibitor, 20 μM ToxoDdi1-RVP, FRET, 490 nm, 37 °C, 1 h) was “did not increase”. For the same compound, the “growth of T. gondii” value in the assay on T. gondii is reported as “inhibit the growth of T. gondii”.
As to `CC(C)c1nc(CN(C)C(=O)N[C@H](C(=O)N[C@@H](Cc2ccccc2)C[C@H](O)[C@H](Cc2ccccc2)NC(=O)OCc2cncs2)C(C)C)cs1` [ritonavir], the “growth of T. gondii” value with T. gondii was “inhibit the growth of T. gondii”.
Turning to `CC(C)(C)NC(=O)[C@@H]1C[C@@H]2CCCC[C@@H]2CN1C[C@@H](O)[C@H](Cc1ccccc1)NC(=O)[C@H](CC(N)=O)NC(=O)c1ccc2ccccc2n1` [saquinavir], the “binding of inhibitor to ToxoDdi1-RVP” value at ToxoDdi1-RVP [2] (BLI, inhibitor 75-600 μM, MES pH 5.5) is recorded as “do not bind”. Moreover, at CrypDdi1-RVP [1] (Octet Red96, His-tagged CrypDdi1-RVP on Ni-NTA tip, 100 mM MES pH 5.5, 150 mM NaCl, 0.5% BSA, 0.05% Tween 20, 3 min, 1:1 Langmuir), the dissociation constant Kd is 242 ± 3 µM. Besides, the “effect on proteolytic activity of CrypDdi1-RVP” value at CrypDdi1-RVP [4] (500 μM inhibitor, 20 μM CrypDdi1-RVP, 2 μM HIV protease substrate-1, 0.1M sodium acetate pH 4.5, 1.0 M NaCl, 1.0 mM EDTA, 1.0 mM DTT, 10% DMSO, 37 °C, 1 h, emission 490 nm) is “has an inhibitory effect on the proteolytic activity of CrypDdi1-RVP”. Further, the “fluorescence intensity in the presence of inhibitor, CrypDdi1-RVP” value at CrypDdi1-RVP [4] (500 μM inhibitor, 20 μM CrypDdi1-RVP, FRET, 490 nm, 37 °C, 1 h) is on record as “did not increase”.
For the compound “Arg-Glu(EDANS)-Ser-Gln-Asn-Tyr-Pro-Ile-Val-Gln-Lys(DABCYL)-Arg [HIV protease substrate-1, synthetic FRET peptide containing the HIV protease cleavage site (Tyr-Pro), Sigma-aldrich]”, the “substrate cleavage by HPLC, ToxoDdi1-RVP, 1 h” value on ToxoDdi1-RVP [5] is reported as “completely cleaved”. Besides, the “substrate cleavage: fluorescence intensity with increasing protein concentration, ToxoDdi1-RVP” value on ToxoDdi1-RVP [3] (2 μM substrate, no inhibitor, different ToxoDdi1-RVP concentrations) was “An increase in the fluorescence intensity was observed with increasing protein concentration”. Moreover, the “substrate cleavage by HPLC, CrypDdi1-RVP, 1 h” value at CrypDdi1-RVP [6] (100 mM sodium acetate pH 4.7, 1 M NaCl, 1 mM DTT, 37 °C, 1 h) was “completely cleaved”. For the same compound, the “substrate cleavage by HPLC, CrypDdi1-RVP, 30 min” value on CrypDdi1-RVP [6] (pH 4.7, 37 °C, 30 min) was “both the substrate and the product were detected”. Moreover, on CrypDdi1-RVP [4] (2 μM substrate, no inhibitor, different CrypDdi1-RVP concentrations), the “substrate cleavage: fluorescence intensity with increasing protein concentration, CrypDdi1-RVP” value was “An increase in the fluorescence intensity was observed with increasing protein concentration”.
As usually defined, the stoichiometry N is the number of molecules, sites or subunits per partner or assembly. Turning to CrypDdi1-RVP (domain or fragment), the stoichiometry N in assay [7] is 2.
Compound GVGRQEI [GVGRQEI] had a Kd on LeishDdi1-fl of 25.3 ± 3.5 µM.
In turn, MIWRKPW [MIWRKPW] returned a Kd on LeishDdi1-fl of 2.8 ± 1.5 µM. This Kd lies about 9-fold lower than the previous one.
Compound ToxoDdi1-RVP (domain or fragment) showed a stoichiometry N in assay [8] of 2.
